Structures can show the parent of a compound that is named as a salt.
What follows are compounds tested against T1, ATM (Homo sapiens, UniProt Q13315) (assay: ATM inhibition test (phosphorylation of Chk2 generated by ionizing radiation, AlphaScreen SureFire)). Settings: phosphorylated Chk2 in NCI-H460 cells, ionizing radiation 8Gy, 1 hour after test compound treatment; read-out: ATM inhibitory activity.
T1 construct: detecting phosphorylation of Chk2 in a human non-small cell lung cancer cell line NCI-H460 (ATCC company); host or cells: NCI-H460 human non-small cell lung cancer cells
T1 sequence (Q13315 whole entry): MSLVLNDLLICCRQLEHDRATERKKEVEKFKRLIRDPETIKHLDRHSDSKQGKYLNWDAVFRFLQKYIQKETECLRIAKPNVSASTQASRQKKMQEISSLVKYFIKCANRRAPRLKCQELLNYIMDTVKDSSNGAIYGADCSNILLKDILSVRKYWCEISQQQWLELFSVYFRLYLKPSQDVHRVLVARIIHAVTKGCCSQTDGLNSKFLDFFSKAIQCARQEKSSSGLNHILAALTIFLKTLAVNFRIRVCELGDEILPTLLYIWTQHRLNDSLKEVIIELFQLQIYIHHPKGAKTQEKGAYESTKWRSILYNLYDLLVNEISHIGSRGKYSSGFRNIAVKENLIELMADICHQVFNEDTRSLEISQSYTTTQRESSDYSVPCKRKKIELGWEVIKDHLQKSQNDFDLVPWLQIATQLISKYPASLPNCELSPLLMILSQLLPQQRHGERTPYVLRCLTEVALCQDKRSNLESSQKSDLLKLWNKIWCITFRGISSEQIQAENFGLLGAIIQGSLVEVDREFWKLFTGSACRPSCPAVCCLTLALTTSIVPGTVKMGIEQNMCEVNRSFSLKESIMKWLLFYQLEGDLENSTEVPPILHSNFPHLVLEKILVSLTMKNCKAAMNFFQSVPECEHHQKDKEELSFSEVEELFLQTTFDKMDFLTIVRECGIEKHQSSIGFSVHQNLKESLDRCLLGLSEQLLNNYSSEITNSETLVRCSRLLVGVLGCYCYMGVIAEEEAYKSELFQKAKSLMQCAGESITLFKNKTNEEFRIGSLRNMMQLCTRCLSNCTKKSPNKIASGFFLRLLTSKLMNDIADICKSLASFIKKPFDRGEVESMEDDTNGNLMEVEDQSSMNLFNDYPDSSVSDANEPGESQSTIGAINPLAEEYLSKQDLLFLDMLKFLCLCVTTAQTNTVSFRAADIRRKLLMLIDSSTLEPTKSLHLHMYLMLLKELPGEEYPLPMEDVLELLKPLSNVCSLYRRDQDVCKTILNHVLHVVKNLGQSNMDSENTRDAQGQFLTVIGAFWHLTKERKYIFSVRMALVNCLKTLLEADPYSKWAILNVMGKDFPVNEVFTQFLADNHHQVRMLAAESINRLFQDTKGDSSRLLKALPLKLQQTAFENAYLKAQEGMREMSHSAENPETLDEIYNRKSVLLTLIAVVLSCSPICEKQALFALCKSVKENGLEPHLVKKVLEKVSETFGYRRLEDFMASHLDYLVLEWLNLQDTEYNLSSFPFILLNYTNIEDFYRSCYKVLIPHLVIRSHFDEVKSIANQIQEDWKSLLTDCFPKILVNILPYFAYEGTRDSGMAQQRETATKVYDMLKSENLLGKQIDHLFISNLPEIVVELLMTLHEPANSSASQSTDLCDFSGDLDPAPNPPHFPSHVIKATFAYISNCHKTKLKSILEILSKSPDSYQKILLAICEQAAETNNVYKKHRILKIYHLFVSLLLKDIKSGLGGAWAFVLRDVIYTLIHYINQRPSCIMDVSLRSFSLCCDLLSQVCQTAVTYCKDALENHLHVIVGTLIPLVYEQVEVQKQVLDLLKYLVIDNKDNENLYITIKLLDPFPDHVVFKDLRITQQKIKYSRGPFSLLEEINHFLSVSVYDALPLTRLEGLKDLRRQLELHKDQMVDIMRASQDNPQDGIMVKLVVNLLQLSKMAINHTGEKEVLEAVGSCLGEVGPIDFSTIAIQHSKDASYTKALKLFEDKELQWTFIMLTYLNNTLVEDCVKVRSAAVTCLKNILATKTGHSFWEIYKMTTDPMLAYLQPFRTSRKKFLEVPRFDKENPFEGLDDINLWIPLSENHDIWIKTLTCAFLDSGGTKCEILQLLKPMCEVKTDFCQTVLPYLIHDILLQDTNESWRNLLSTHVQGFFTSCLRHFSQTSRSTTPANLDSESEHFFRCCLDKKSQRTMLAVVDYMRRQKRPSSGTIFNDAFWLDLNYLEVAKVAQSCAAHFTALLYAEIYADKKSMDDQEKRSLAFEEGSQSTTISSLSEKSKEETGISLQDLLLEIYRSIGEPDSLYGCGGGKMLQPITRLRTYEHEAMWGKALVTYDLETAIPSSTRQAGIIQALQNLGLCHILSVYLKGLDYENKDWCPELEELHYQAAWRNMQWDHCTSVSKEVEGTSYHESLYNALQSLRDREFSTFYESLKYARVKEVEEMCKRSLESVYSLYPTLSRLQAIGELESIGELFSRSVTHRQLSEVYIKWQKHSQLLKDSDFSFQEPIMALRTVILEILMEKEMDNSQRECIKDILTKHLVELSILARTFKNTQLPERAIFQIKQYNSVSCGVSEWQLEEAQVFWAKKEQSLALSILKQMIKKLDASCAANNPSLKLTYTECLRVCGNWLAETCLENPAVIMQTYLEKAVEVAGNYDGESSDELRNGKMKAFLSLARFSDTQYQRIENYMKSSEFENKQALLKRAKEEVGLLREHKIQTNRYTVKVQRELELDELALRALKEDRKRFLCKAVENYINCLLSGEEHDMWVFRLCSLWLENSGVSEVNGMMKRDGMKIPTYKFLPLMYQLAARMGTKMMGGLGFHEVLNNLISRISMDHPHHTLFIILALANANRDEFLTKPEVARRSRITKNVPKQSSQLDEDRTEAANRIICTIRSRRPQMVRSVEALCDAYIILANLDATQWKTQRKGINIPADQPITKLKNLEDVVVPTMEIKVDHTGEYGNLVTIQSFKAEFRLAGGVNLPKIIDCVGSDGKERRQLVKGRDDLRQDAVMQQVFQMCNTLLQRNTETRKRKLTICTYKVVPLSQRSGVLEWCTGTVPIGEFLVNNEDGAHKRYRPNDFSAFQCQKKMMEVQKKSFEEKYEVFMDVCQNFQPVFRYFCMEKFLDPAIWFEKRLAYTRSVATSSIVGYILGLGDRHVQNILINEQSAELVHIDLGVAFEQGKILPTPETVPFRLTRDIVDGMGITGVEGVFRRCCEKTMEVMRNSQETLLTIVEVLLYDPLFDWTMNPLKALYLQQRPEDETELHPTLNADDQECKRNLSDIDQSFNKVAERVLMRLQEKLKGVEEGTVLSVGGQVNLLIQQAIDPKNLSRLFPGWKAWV
Assay type: cell-based
Procedure, shortened: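 In NCI-H460 cells, radiation-triggered Chk2 phosphorylation (8Gy, 1 h) is detected by AlphaScreen SureFire following 1 h compound exposure.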
With Cc1ccc(C(CCN2CCOCC2)Nc2ccc3c(c2)Sc2cccc(-c4cc(N5CCOCC5)cc(=O)[nH]4)c2S3)nc1 (single isomer, unassigned) [Example 1-51-7, 6-(7-((1-(5-Methylpyridin-2-yl)-3-morpholinopropyl)amino)thianthren-1-yl)-4-morpholino pyridin-2(1H)-one] the IC50 was < 100 nM.
An IC50 of 100 to 500 nM was found for CC(Nc1ccc2c(c1)Cc1cccc(-c3cc(N4CCOCC4)cc(=O)[nH]3)c1O2)c1cncc(Cl)c1 (stereo not drawn) [Example 2-14-27, 6-(7-((1-(5-Chloropyridin-3-yl)ethyl)amino)-9H-xanthen-4-yl)-4-morpholino pyridin-2(1H)-one] in this work.
With CC(CN1CC(C)OC(C)C1)Nc1ccc2c(c1)Sc1cccc(-c3cc(N4CCOCC4)cc(=O)[nH]3)c1S2 (stereo not drawn) [Example 1-13-11, 6-(7-((1-(2,6-Dimethylmorpholino)propan-2-yl)amino)thianthren-1-yl)-4-morpholino pyridin-2(1H)-one] the IC50 was < 100 nM.
An IC50 of 100 to 500 nM was found for CC(Nc1ccc2c(c1)Cc1cccc(-c3cc(N4CCOCC4)cc(=O)[nH]3)c1O2)c1cc(Cl)ccn1 (single isomer, unassigned) [Example 2-14-89-1, 6-(7-((1-(4-chloropyridin-2-yl)ethyl)amino)-9H-xanthen-4-yl)-4-morpholinopyridin-2(1H)-one] in this work.
An IC50 of 500 to 2000 nM was found for O=c1cc(N2CCOCC2)cc(-c2cccc3c2Oc2ccc(NC4CCN(CCc5ccc(Cl)cc5)CC4)cc2C3)[nH]1 [Example 2-30-6, 6-(7-((1-(4-Chlorophenethyl)piperidin-4-yl)amino)-9H-xanthen-4-yl)-4-morpholino pyridin-2 (1H)-one] in this work.
An IC50 of 100 to 500 nM was found for CN1CCOc2cc(CNc3ccc4c(c3)Cc3cccc(-c5cc(N6CCOCC6)cc(=O)[nH]5)c3O4)cnc21 [Example 2-2-5, 6-(7-(((4-Methyl-3,4-dihydro-2H-pyrido[3,2-b] [1,4]oxazin-7-yl)methyl)amino)-9H-xanthen-4-yl)-4-morpholino pyridin-2 (1H)-one] in this work.
An IC50 of 100 to 500 nM was found for COc1ccc(C2c3cc(N)ccc3Oc3c2ccnc3-c2cc(N3CCOCC3)cc(=O)[nH]2)cc1 (stereo not drawn) [Example 2-66, Hydrochloride of 6-(7-amino-5-(4-methoxyphenyl)-5H-chromeno[2,3-c]pyridin-1-yl)-4-morpholinopyridin-2(1H)-one] in this work.
An IC50 of 100 to 500 nM was found for Cc1ccc(C(CCCN(C)C)Nc2ccc3c(c2)Sc2cccc(-c4cc(N5CCOCC5)cc(=O)[nH]4)c2S3)nc1 (single isomer, unassigned) [Example 1-51-4, 6-(7-((4-(Dimethylamino)-1-(5-methylpyridin-2-yl)butyl)amino)thianthren-1-yl)-4-morpholino pyridin-2(1H)-one] in this work.
An IC50 of 100 to 500 nM was found for CCCC(Nc1ccc2c(c1)Sc1cccc(-c3cc(N4CCOCC4)cc(=O)[nH]3)c1O2)c1cncc(OC)c1 (stereo not drawn) [Example 4-4-26, 6-(8-((1-(5-Methoxypyridin-3-yl)butyl)amino)phenoxathiin-4-yl)-4-morpholino pyridin-2(1H)-one] in this work.
An IC50 of 500 to 2000 nM was found for Cc1cccc(CN(CC(=O)O)c2ccc3c(c2)Cc2cccc(-c4cc(N5CCOCC5)cc(=O)[nH]4)c2O3)n1 [Example 2-17, 2-(((6-methylpyridin-2-yl)methyl)(5-(4-morpholino-6-oxo-1,6-dihydropyridin-2-yl)-9H-xanthen-2-yl)amino)acetic acid] in this work.
An IC50 of 500 to 2000 nM was found for Cc1ccc(C(CC2CCCCC2)Nc2ccc3c(c2)Sc2cccc(-c4cc(N5CCOCC5)cc(=O)[nH]4)c2S3)nc1 (stereo not drawn) [Example 1-12-129, 6-(7-((2-Cyclohexyl-1-(5-methylpyridin-2-yl)ethyl)amino)thianthren-1-yl)-4-morpholino pyridin-2(1H) one] in this work.
An IC50 of 100 to 500 nM was found for O=c1cc(N2CCOCC2)cc(-c2cccc3c2Oc2ccc(NC4CCC5(CC4)OCCO5)cc2C3)[nH]1 [Example 2-2-62, 6-(7-(1,4-Dioxaspiro[4.5]decan-8-ylamino)-9H-xanthen-4-yl)-4-morpholino pyridin-2(1H)-one] in this work.
An IC50 of 100 to 500 nM was found for COCC(CN1CCOCC1)Nc1ccc2c(c1)Sc1cccc(-c3cc(N4CCOCC4)cc(=O)[nH]3)c1S2 (single isomer, unassigned) [Example 1-17-1-3, 6-(7-((1-methoxy-3-morpholinopropan-2-yl)amino)thianthren-1-yl)-4-morpholinopyridin-2(1H)-one] in this work.
For O=c1cc(N2CCOCC2)cc(-c2cccc3c2Sc2ccc(N[C@@H]4COC[C@H]4N4CCOCC4)cc2S3)[nH]1 (relative stereo) [Example 1-60, Trans-4-morpholino-6-(7-((4-morpholinotetrahydrofuran-3-yl)amino)thianthren-1-yl)pyridin-2(1H)-one], the IC50 was < 100 nM.
An IC50 of 100 to 500 nM was found for CC(Nc1ccc2c(c1)Sc1cccc(-c3cc(N4CCOCC4)cc(=O)[nH]3)c1S2)c1cc(Cl)ncn1 (stereo not drawn) [Example 1-12-83, 6-(7-((1-(6-Chloropyrimidin-4-yl)ethyl)amino)thianthren-1-yl)-4-morpholino pyridin-2 (1H)-one] in this work.
An IC50 of 100 to 500 nM was found for O=c1cc(N2CCOCC2)nc(-c2cccc3c2Oc2ccc(NCc4cc(Cl)ccn4)cc2C3)[nH]1 [Example 2-52-3, 2-(7-(((4-Chloropyridin-2-yl)methyl)amino)-9H-xanthen-4-yl)-6-morpholinopyrimidine-4(3H)-one] in this work.
An IC50 of 100 to 500 nM was found for O=c1cc(N2CCOCC2)cc(-c2cccc3c2Oc2ccc(NCc4cncc(Cl)c4)cc2S3)[nH]1 [Example 4-8-6, 6-(8-(((5-Chloropyridin-3-yl)methyl)amino)phenoxathiin-4-yl)-4-morpholino pyridin-2(1H)-one] in this work.
Cc1ccc(C(Nc2ccc3c(c2)Sc2cccc(-c4cc(N5CCOCC5)cc(=O)[nH]4)c2S3)[C@H]2CN(C)CCO2)nc1 (single isomer, unassigned) [Example 1-56-13] was tested, and the IC50 was < 100 nM.
An IC50 of 100 to 500 nM was found for CC(Nc1ccc2c(c1)Cc1cccc(-c3cc(N4CCOCC4)cc(=O)[nH]3)c1O2)c1cncc(F)c1 (stereo not drawn) [Example 2-14-29, 6-(7-((1-(5-Fluoropyridin-3-yl)ethyl)amino)-9H-xanthan-4-yl)-4-morpholino pyridin-2(1H)-one] in this work.
An IC50 of 100 to 500 nM was found for O=c1cc(N2CCOCC2)cc(-c2cccc3c2Oc2ccc(NCc4cncc(OC(F)F)c4)cc2C3)[nH]1 [Example 2-14-6, 6-(7-(((5-(Difluoromethoxy)pyridin-3-yl)methyl)amino)-9H-xanthen-4-yl)-4-morpholino pyridin-2(1H)-one] in this work.
An IC50 of 100 to 500 nM was found for Cc1cccc(C(CCN2CCCC2)Nc2ccc3c(c2)Sc2cccc(-c4cc(N5CCOCC5)cc(=O)[nH]4)c2S3)n1 (stereo not drawn) [Example 1-34-6, 6-(7-((1-(6-Methylpyridin-2-yl)-3-(pyrrolidin-1-yl)propyl)amino)thianthren-1-yl)-4-morpholino pyridin-2(1H)-one] in this work.
An IC50 of 500 to 2000 nM was found for O=c1cc(N2CCOCC2)cc(-c2cccc3c2Sc2ccc(NCc4cccnn4)cc2C3)[nH]1 [Example 3-8-12] in this work.
An IC50 of 100 to 500 nM was found for O=c1cc(N2CCOCC2)cc(-c2cccc3c2Oc2ccc(NCc4ccc(-n5cccn5)nc4)cc2C3)[nH]1 [Example 2-2-31, 6-(7-(((6-(1H-Pyrazol-1-yl)pyridin-3-yl)methyl)amino)-9H-xanthen-4-yl)-4-morpholino pyridin-2(1H)-one] in this work.
An IC50 of 100 to 500 nM was found for CCOCC(Nc1ccc2c(c1)Sc1cccc(-c3cc(N4CCOCC4)cc(=O)[nH]3)c1S2)c1ccc(C)cn1 (stereo not drawn) [Example 1-12-101, 6-(7-((2-Ethoxy-1-(5-methylpyridin-2-yl)ethyl)amino)thianthren-1-yl)-4-morpholino pyridin-2(1H)-one] in this work.
